Values joined by “and” are separate entries in the source; they are usually repeats but may differ in a detail not shown here. Equal entries are not always repeated.
Experiment: Patient incidence of adverse events (CTCAE version 4.0)
Type: in vivo
Excerpt: Each patient was monitored for 21 days for the occurrence of dose-limiting toxicities (DLTs), defined as febrile neutropenia, neutropenic infection, grade 4 neutropenia lasting >7 days, grade ≥ 3 thrombocytopenia lasting >7 days (solid tumors only), grade 3 thrombocytopenia with grade ≥ 2 bleeding (solid tumors only), grade 3 or 4 thrombocytopenia with grade > 1 bleeding (multiple myeloma only), grade 4 thrombocytopenia (solid tumors only), or grade 4 thrombocytopenia lasting >14 days (multiple myeloma only), or as grade ≥ 3 nausea, vomiting, or diarrhea after support; grade 3 fatigue lasting >7 days; any other grade ≥ 3 adverse event (AE); grade ≥ 3 kidney injury (multiple myeloma only), or treatment-related AEs not returning to grade ≤ 1 (solid tumors only) per Common Terminology Criteria for Adverse Events (CTCAE), version 4.0. The MTD was defined as the maximum dose, at which the probability of a DLT was ≤25% in Part 1A and ≤ 33% in Parts 1B and 1C. Treatment continued until disease progression, intolerable toxicity, or withdrawal of consent.
AEs were recorded for all enrolled patients.

[1] = 240-mg dose expansion, Other Solid (n = 16)
[2] = 240-mg dose expansion, Total (n = 68)
[3] = 240-mg dose expansion, WDLPS (n = 10)
[4] = 240-mg dose expansion, all patients

## CC(C)[C@@H](CS(=O)(=O)C(C)C)N1C(=O)[C@@](C)(CC(=O)O)C[C@H](c2cccc(Cl)c2)[C@H]1c1ccc(Cl)cc1 [AMG 232]
[1]
  Serious, treatment-related AE: Hyperlipasemia (grade 3): 0 n (%)
  Serious, treatment-related AE: Nausea (grade 3): 0 n (%)
  Serious, treatment-related AE: Pulmonary embolism (grade 3): 0 n (%)
  Serious, treatment-related AE: Vomiting (grade 3): 0 n (%)
  Treatment-related AE: Anemia: 3 (19) n (%)
  Treatment-related AE: Asthenia: 2 (13) n (%)
  Treatment-related AE: Decrease appetite: 4 (25) n (%)
  Treatment-related AE: Diarrhea: 8 (50) n (%)
  Treatment-related AE: Dysgeusia: 2 (13) n (%)
  Treatment-related AE: Fatigue: 6 (38) n (%)
  Treatment-related AE: Nausea: 11 (69) n (%)
  Treatment-related AE: Neutropenia: 1 (6) n (%)
  Treatment-related AE: Thrombocytopenia: 2 (13) n (%)
  Treatment-related AE: Vomiting: 8 (50) n (%)
[2]
  Patients with any treatment-emergent AE: 67 (99%) n (%) and 67 (99) n (%)
  Patients with any treatment-emergent serious AE: 29 (43%) n (%) and 29 (43) n (%)
  Patients with any treatment-related AE, Grade 3: 25 (37) n (%)
  Patients with any treatment-related AE, Grade 4: 8 (12) n (%)
  Patients with any treatment-related AE, Grade 5: 0 n (%)
  Serious, treatment-related AE: Dehydration (grade 3): 1 (2) n (%)
  Serious, treatment-related AE: Diarrhea (grade 3): 1 (2) n (%)
  Serious, treatment-related AE: Hyperamylasemia (grade 3): 1 (2) n (%)
  Serious, treatment-related AE: Hyperlipasemia (grade 3): 1 (2) n (%)
  Serious, treatment-related AE: Nausea (grade 3): 1 (2) n (%)
  Serious, treatment-related AE: Pulmonary embolism (grade 3): 1 (2) n (%)
  Serious, treatment-related AE: Vomiting (grade 3): 3 (4) n (%)
  Treatment-related AE: Anemia: 10 (15) n (%)
  Treatment-related AE: Asthenia: 9 (13) n (%)
  Treatment-related AE: Decrease appetite: 28 (41) n (%)
  Treatment-related AE: Diarrhea: 46 (68) n (%)
  Treatment-related AE: Dysgeusia: 9 (13) n (%)
  Treatment-related AE: Fatigue: 32 (47) n (%)
  Treatment-related AE: Nausea: 46 (68) n (%)
  Treatment-related AE: Neutropenia: 12 (18) n (%)
  Treatment-related AE: Thrombocytopenia: 14 (21) n (%)
  Treatment-related AE: Vomiting: 32 (47) n (%)
[3]
  Patients with any serious, treatment-related AE: 2 (20) n (%)
  Patients with any treatment-emergent AE: 10 (100) n (%)
  Patients with any treatment-emergent serious AE: 5 (50) n (%)
  Patients with any treatment-related AE: 10 (100) n (%)
  Patients with any treatment-related AE, Grade 3: 6 (60) n (%)
  Patients with any treatment-related AE, Grade 4: 3 (30) n (%)
  Patients with any treatment-related AE, Grade 5: 0 n (%)
  Serious, treatment-related AE: Dehydration (grade 3): 1 (10) n (%)
  Serious, treatment-related AE: Diarrhea (grade 3): 0 n (%)
  Serious, treatment-related AE: Hyperamylasemia (grade 3): 0 n (%)
  Serious, treatment-related AE: Hyperlipasemia (grade 3): 0 n (%)
  Serious, treatment-related AE: Nausea (grade 3): 0 n (%)
  Serious, treatment-related AE: Pulmonary embolism (grade 3): 1 (10) n (%)
  Serious, treatment-related AE: Vomiting (grade 3): 0 n (%)
  Treatment-related AE: Anemia: 5 (50) n (%)
  Treatment-related AE: Asthenia: 0 n (%)
  Treatment-related AE: Decrease appetite: 7 (70) n (%)
  Treatment-related AE: Diarrhea: 9 (90) n (%)
  Treatment-related AE: Dysgeusia: 1 (10) n (%)
  Treatment-related AE: Fatigue: 8 (80) n (%)
  Treatment-related AE: Nausea: 10 (100) n (%)
  Treatment-related AE: Thrombocytopenia: 6 (60) n (%)
  Treatment-related AE: Vomiting: 7 (70) n (%)
[4]
  Treatment-emergent AE: anemia: 25%
  Treatment-emergent AE: decreased appetite: 41%
  Treatment-emergent AE: diarrhea: 72%
  Treatment-emergent AE: fatigue: 53%
  Treatment-emergent AE: nausea: 72%
  Treatment-emergent AE: thrombocytopenia: 24%
  Treatment-emergent AE: vomiting: 59%
  Treatment-related AE: Diarrhea: 68%
  Treatment-related AE: Fatigue: 47%
  Treatment-related AE: Nausea: 68%
  Treatment-related AE: Thrombocytopenia: 21%
  Treatment-related AE: Vomiting: 47%
  Treatment-related AE: decreased appetite: 41%
240-mg dose expansion, two with disease progression and one with physical deterioration
  Patients with fatal AEs while on study: Three
Dose escalation
  AE resulting in treatment discontinuation: febrile neutropenia: 1 n
  AE resulting in treatment discontinuation: neutropenia: 2 n
  AE resulting in treatment discontinuation: thrombocytopenia: 5 n
  Patients with AEs resulting in treatment discontinuation: eight
  Patients with fatal AEs of disease progression while on study: Four
Dose escalation, 15 mg (n = 3)
  Patients with any treatment-emergent AE: 1 (33) n (%)
  Patients with any treatment-emergent serious AE: 1 (33) n (%)
  Patients with any treatment-related AE: 1 (33) n (%)
  Patients with any treatment-related AE, Grade 3: 0 n (%)
  Patients with any treatment-related AE, Grade 4: 0 n (%)
  Patients with any treatment-related AE, Grade 5: 0 n (%)
  Patients with any treatment-related serious AE: 0 n (%)
  Treatment-related AE: Abdominal pain: 0 n (%)
  Treatment-related AE: Anemia: 0 n (%)
  Treatment-related AE: Asthenia: 0 n (%)
  Treatment-related AE: Decrease appetite: 0 n (%)
  Treatment-related AE: Diarrhea: 0 n (%)
  Treatment-related AE: Dysgeusia: 0 n (%)
  Treatment-related AE: Fatigue: 1 (33) n (%)
  Treatment-related AE: Myalgia: 0 n (%)
  Treatment-related AE: Nausea: 0 n (%)
  Treatment-related AE: Neutropenia: 0 n (%)
  Treatment-related AE: Thrombocytopenia: 0 n (%)
  Treatment-related AE: Upper abdominal pain: 0 n (%)
  Treatment-related AE: Vomiting: 0 n (%)
  Treatment-related serious AE: Abdominal pain (grade 2): 0 n (%)
  Treatment-related serious AE: Dehydration (grade 2): 0 n (%)
  Treatment-related serious AE: Diarrhea: 0 n (%)
  Treatment-related serious AE: Diarrhea, Grade 2: 0 n (%)
  Treatment-related serious AE: Diarrhea, Grade 3: 0 n (%)
  Treatment-related serious AE: Febrile neutropenia (grade 3): 0 n (%)
  Treatment-related serious AE: Hematemesis (grade 3): 0 n (%)
  Treatment-related serious AE: Nausea (grade 3): 0 n (%)
  Treatment-related serious AE: Neutropenia (grade 4): 0 n (%)
  Treatment-related serious AE: Non-cardiac chest pain (grade 3): 0 n (%)
  Treatment-related serious AE: Thrombocytopenia (grade 4): 0 n (%)
  Treatment-related serious AE: Vomiting: 0 n (%)
  Treatment-related serious AE: Vomiting, Grade 2: 0 n (%)
  Treatment-related serious AE: Vomiting, Grade 3: 0 n (%)
Dose escalation, 30 mg (n = 3)
  Patients with any treatment-emergent AE: 3 (100) n (%)
  Patients with any treatment-emergent serious AE: 0 n (%)
  Patients with any treatment-related AE: 1 (33) n (%)
  Patients with any treatment-related AE, Grade 3: 0 n (%)
  Patients with any treatment-related AE, Grade 4: 0 n (%)
  Patients with any treatment-related AE, Grade 5: 0 n (%)
  Patients with any treatment-related serious AE: 0 n (%)
  Treatment-related AE: Abdominal pain: 0 n (%)
  Treatment-related AE: Anemia: 0 n (%)
  Treatment-related AE: Asthenia: 0 n (%)
  Treatment-related AE: Decrease appetite: 0 n (%)
  Treatment-related AE: Diarrhea: 1 (33) n (%)
  Treatment-related AE: Dysgeusia: 0 n (%)
  Treatment-related AE: Fatigue: 1 (33) n (%)
  Treatment-related AE: Myalgia: 0 n (%)
  Treatment-related AE: Nausea: 1 (33) n (%)
  Treatment-related AE: Neutropenia: 0 n (%)
  Treatment-related AE: Thrombocytopenia: 0 n (%)
  Treatment-related AE: Upper abdominal pain: 0 n (%)
  Treatment-related AE: Vomiting: 1 (33) n (%)
  Treatment-related serious AE: Abdominal pain (grade 2): 0 n (%)

From PMC7211202 (Investigational New Drugs, 2019)
